Columns and labels:
Format in all cases: functional
[1] = Cytotoxicity against human OVCAR4 cells assessed as cell growth at 10^-8 M after 48 hrs by SRB assay; conditions: OVCAR-4, 48 h, read-out: Activity
BT-549 [2] = test: Cytotoxicity against human BT549 cells after 48 hrs by SRB assay; conditions: BT-549, 48 h
SN12C [3] = test: Cytotoxicity against human SN12C cells assessed as cell growth at 10^-6 M after 48 hrs by SRB assay; conditions: read-out: Activity
RXF 393 = test: Cytotoxicity against human RXF393 cells assessed as cell growth at 10^-4 M after 48 hrs by SRB assay; conditions: RXF 393, 48 h, read-out: Activity
MDA-MB-468 = test: Cytotoxicity against human MDA-MB-468 cells assessed as cell growth at 10^-7 M after 48 hrs by SRB assay; conditions: MDA-MB-468, 48 h, read-out: Activity
SK-MEL-2 = test: Cytotoxicity against human SK-MEL-2 cells assessed as cell growth at 10^-7 M after 48 hrs by SRB assay; conditions: SK-MEL-2, 48 h, read-out: Activity
KM12 = test: Cytotoxicity against human KM12 cells after 48 hrs by SRB assay; conditions: KM12, 48 h
NCI-H460 [4] = test: Cytotoxicity against human NCI-H460 cells assessed as cell growth at 10^-8 M after 48 hrs by SRB assay; conditions: NCI-H460, 48 h, read-out: Activity
HCT-116 = test: Cytotoxicity against human HCT116 cells assessed as cell growth at 10^-6 M after 48 hrs by SRB assay; conditions: HCT-116, 48 h, read-out: Activity
NCI-H460 [5] = test: Cytotoxicity against human NCI-H460 cells assessed as cell growth at 10^-4 M after 48 hrs by SRB assay; conditions: NCI-H460, 48 h, read-out: Activity
SF-539 = test: Cytotoxicity against human SF539 cells assessed as cell growth at 10^-8 M after 48 hrs by SRB assay; conditions: SF-539, 48 h, read-out: Activity
Malme-3M = test: Cytotoxicity against human MALME-3M cells assessed as cell growth at 10^-7 M after 48 hrs by SRB assay; conditions: read-out: Activity
MOLT-4 [6] = test: Cytotoxicity against human MOLT4 cells after 48 hrs by SRB assay; conditions: MOLT-4, 48 h
MDA-MB-231 = test: Cytotoxicity against human MDA-MB-231 cells assessed as cell growth at 10^-6 M after 48 hrs by SRB assay; conditions: MDA-MB-231, 48 h, read-out: Activity
SNB-19 = test: Cytotoxicity against human SNB19 cells assessed as cell growth at 10^-7 M after 48 hrs by SRB assay; conditions: SNB-19, 48 h, read-out: Activity
BT-549 [7] = test: Cytotoxicity against human BT549 cells assessed as cell growth at 10^-6 M after 48 hrs by SRB assay; conditions: BT-549, 48 h, read-out: Activity
[8] = Cytotoxicity against human UO31 cells assessed as cell growth at 10^-7 M after 48 hrs by SRB assay; conditions: UO-31, 48 h, read-out: Activity
[9] = Cytotoxicity against human OVCAR4 cells after 48 hrs by SRB assay; conditions: OVCAR-4, 48 h
COLO 205 [10] = test: Cytotoxicity against human COLO205 cells assessed as cell growth at 10^-4 M after 48 hrs by SRB assay; conditions: COLO 205, 48 h, read-out: Activity
SF-295 = test: Cytotoxicity against human SF295 cells assessed as cell growth at 10^-7 M after 48 hrs by SRB assay; conditions: SF-295, 48 h, read-out: Activity
M14 = test: Cytotoxicity against human M14 cells assessed as cell growth at 10^-4 M after 48 hrs by SRB assay; conditions: M14, 48 h, read-out: Activity
[11] = Cytotoxicity against human Hs578T cells assessed as cell growth at 10^-8 M after 48 hrs by SRB assay; conditions: Hs-578T, read-out: Activity
COLO 205 [12] = test: Cytotoxicity against human COLO205 cells after 48 hrs by SRB assay; conditions: COLO 205, 48 h
T47D = test: Cytotoxicity against human T47D cells after 48 hrs by SRB assay
OVCAR-8 = test: Cytotoxicity against human OVCAR8 cells assessed as cell growth at 10^-7 M after 48 hrs by SRB assay; conditions: OVCAR-8, 48 h, read-out: Activity
HT-29 [13] = test: Cytotoxicity against human HT-29 cells assessed as cell growth at 10^-4 M after 48 hrs by SRB assay; conditions: HT-29, 48 h, read-out: Activity
NCI-H522 = test: Cytotoxicity against human NCI-H522 cells assessed as cell growth at 10^-7 M after 48 hrs by SRB assay; conditions: NCI-H522, 48 h, read-out: Activity
SN12C [14] = test: Cytotoxicity against human SN12C cells assessed as cell growth at 10^-8 M after 48 hrs by SRB assay; conditions: read-out: Activity
HOP-92 = test: Cytotoxicity against human HOP92 cells assessed as cell growth at 10^-7 M after 48 hrs by SRB assay; conditions: HOP-92, 48 h, read-out: Activity
MOLT-4 [15] = test: Cytotoxicity against human MOLT4 cells assessed as cell growth at 10^-8 M after 48 hrs by SRB assay; conditions: MOLT-4, 48 h, read-out: Activity
SK-OV-3 = test: Cytotoxicity against human SKOV3 cells assessed as cell growth at 10^-4 M after 48 hrs by SRB assay; conditions: SK-OV-3, 48 h, read-out: Activity
K562 = test: Cytotoxicity against human K562 cells assessed as cell growth at 10^-4 M after 48 hrs by SRB assay; conditions: K562, 48 h, read-out: Activity
HT-29 [16] = test: Cytotoxicity against human HT-29 cells after 48 hrs by SRB assay; conditions: HT-29, 48 h
RPMI-8226 [17] = test: Cytotoxicity against human RPMI8226 cells assessed as cell growth at 10^-6 M after 48 hrs by SRB assay; conditions: RPMI-8226, 48 h, read-out: Activity
NCI-H322M = test: Cytotoxicity against human NCI-H322M cells assessed as cell growth at 10^-4 M after 48 hrs by SRB assay; conditions: read-out: Activity
RPMI-8226 [18] = test: Cytotoxicity against human RPMI8226 cells after 48 hrs by SRB assay; conditions: RPMI-8226, 48 h
NCI-H23 = test: Cytotoxicity against human NCI-H23 cells after 48 hrs by SRB assay; conditions: NCI-H23, 48 h
TK-10 = test: Cytotoxicity against human TK10 cells after 48 hrs by SRB assay; conditions: TK-10, 48 h

**Q.** What does the source list for `C=CCn1c(C)nc2ccc(Nc3nc(Nc4ccc(F)cc4)nc4ccccc34)cc21`?
**A.** growth at 0.01 µM [1]: 96%; GI50 (BT-549 [2]): 3.35 µM; LC50 (BT-549 [2]): 73.1 µM; TGI (BT-549 [2]): 18.1 µM; growth at 1 µM (SN12C [3]): 81%; growth at 100 µM (RXF 393): -56%; growth at 0.1 µM (MDA-MB-468): 74%; growth at 0.1 µM (SK-MEL-2): 101%; GI50 (KM12): 4.07 µM; LC50 (concentration killing 50% of cells) (KM12): 51.8 µM; TGI (KM12): 16.4 µM; growth at 0.01 µM (NCI-H460 [4]): 100%; growth at 1 µM (HCT-116): 88%; growth at 100 µM (NCI-H460 [5]): -55%; growth at 0.01 µM (SF-539): 99%; growth at 0.1 µM (Malme-3M): 98%; GI50 (MOLT-4 [6]): 1.77 µM; LC50 (MOLT-4 [6]): > 100 µM; TGI (MOLT-4 [6]): 6.27 µM; growth at 1 µM (MDA-MB-231): 85%; growth at 0.1 µM (SNB-19): 93%; growth at 1 µM (BT-549 [7]): 82%; growth at 0.1 µM [8]: 86%; GI50 [9]: 2.06 µM; LC50 [9]: > 100 µM; TGI [9]: 5.81 µM; growth at 100 µM (COLO 205 [10]): -28%; growth at 0.1 µM (SF-295): 92%; growth at 100 µM (M14): -44%; growth at 0.01 µM [11]: 92%; GI50 (COLO 205 [12]): 1.75 µM; TGI (COLO 205 [12]): 3.25 µM; GI50 (T47D): 1.7 µM; LC50 (T47D): > 100 µM; TGI (T47D): 4.23 µM; growth at 0.1 µM (OVCAR-8): 94%; growth at 100 µM (HT-29 [13]): -34%; growth at 0.1 µM (NCI-H522): 84%; growth at 0.01 µM (SN12C [14]): 93%; growth at 0.1 µM (HOP-92): 80%; growth at 0.01 µM (MOLT-4 [15]): 98%; growth at 100 µM (SK-OV-3): -37%; growth at 100 µM (K562): -41%; GI50 (HT-29 [16]): 3 µM; LC50 (concentration killing 50% of cells) (HT-29 [16]): > 100 µM; TGI (HT-29 [16]): 13.3 µM; growth at 1 µM (RPMI-8226 [17]): 84%; growth at 100 µM (NCI-H322M): -82%; GI50 (RPMI-8226 [18]): 1.85 µM; LC50 (RPMI-8226 [18]): > 100 µM; TGI (RPMI-8226 [18]): 4.57 µM; GI50 (NCI-H23): 4.23 µM; LC50 (concentration giving 50% net cell kill) (NCI-H23): > 100 µM; TGI (NCI-H23): 26 µM; GI50 (TK-10): 6.83 µM; LC50 (TK-10): 75.5 µM; TGI (TK-10): 24.6 µM

— ChEMBL document CHEMBL3112450, “Synthesis and in vitro antitumor evaluation of primary amine substituted quinazoline linked benzimidazole” (Bioorg Med Chem Lett, 2014)
